Measurements published in patent US20170260285A1, “METHODS FOR TREATING CANCER” (UNIVERSITY OF IOWA RESEARCH FOUNDATION, priority 2014, published 2017).
Entries after “also recorded” stand apart in the source; their conditions may differ. Where two headings read alike, the source gives them in different places.

Columns and labels:
[1] = tested on: genes related to inflammation and innate immunity; conditions: one other study (ref. 25); cited from earlier work
Cal-27 HNSCC cells [2] = experiment: IL-6 secretion by ELISA in Cal-27 cells; type: cell-based, human; conditions: erlotinib 5 μM, 48 h vs DMSO, ELISA
Source text: (§1) Cal-27 and FaDu human head and neck squamous carcinoma (HNSCC) cells were obtained from the American Type Culture Collection (ATCC, Manassas, Va.). SQ20B HNSCC cells (16) were a gift from Dr. Anjali Gupta (Department of Radiation Oncology, The University of Iowa). All HNSCC cell lines are EGFR positive and are sensitive to EGFR inhibitors. All cell lines were authenticated by the ATCC for viability (before freezing and after thawing), growth, morphology and isoenzymology. Cells were stored according to the supplier's instructions and used over a course of no more than 3 months after resuscitation of frozen aliquots. Cultures were maintained in 5% CO2 and air humidified in a 37° C. incubator.
(§2) Erlotinib (ERL; Tarceva) and anakinra (ANA; Kineret) were obtained from the inpatient pharmacy at the University of Iowa Hospitals and Clinics. Drugs were added to cells at final concentrations of 5 μM ERL and 10 ng/mL or 50 ng/mL ANA. Human IgG and […] (DMSO) were used as controls and were obtained from Sigma Aldrich. Human IL-1α, IL-1β, and IL-18Rα neutralizing antibodies were obtained from R&D Systems and were used at a concentration of 0.5 μg/mL. Recombinant human IL-1α was obtained from Life Technologies and administered at a concentration of 1 ng/mL. Ac-Y-VAD-cho, a caspase-1 inhibitor (CalBioChem), was suspended in DMSO and added at a concentration of […], a pan-caspase inhibitor (Promega) was diluted in DMSO and added at a concentration of 20 μM. TLR agonists were used at the following concentrations: Pam3CSK4 (200ng/mL), FSL-1 (100 ng/mL), Poly I:C (20 μg/mL), LPS (200 ng/mL), Flagellin (200 ng/mL), Gardiquimod (1 μg/mL), CL075 (1 μg/mL), and E. coli DNA (1 μg/mL). All TLR agonists were obtained from InvivoGen. The required volume of each drug was added directly to complete cell culture media on cells to achieve the indicated final concentrations.
(§3) Levels of IL-6, IL-1α and IL-1β of treated cells were determined by ELISA. The culture media of the treated cells were harvested and each cytokine was detected according to the manufacturer's protocol using the Human Quantikine ELISA Kits (R&D Systems, Minneapolis, Minn.).
as §1, with “(20)” for “(16)”
(§4) Erlotinib (ERL; Tarceva), anakinra (ANA; Kineret) and N-acetyl cysteine (NAC; Acetadote) were obtained from the inpatient pharmacy at the University of Iowa Hospitals and Clinics. Drugs were added to cells at final concentrations of 5 μM ERL, 10 ng/mL or 50 ng/mL ANA and 20 mM NAC. Human IgG and […] (DMSO) were used as controls and were obtained from Sigma Aldrich. Pegylated catalase (CAT; Sigma Aldrich) was used at a final concentration of 100 U/mL. Human IL-1α, IL-1β, and IL-18Ra neutralizing antibodies were obtained from R&D Systems and were used at a concentration of 0.5 μg/mL. Recombinant human IL-1α was obtained from Life Technologies and administered at a concentration of 1 ng/mL. Ac-Y-VAD-cho (CalBioChem) was suspended in DMSO and used at 5 μM. Z-VAD-fmk (Promega) was diluted in DMSO and used at 20 μM. TLR agonists were used at the following concentrations: Pam3CSK4 (200 ng/mL), FSL-1 (100 ng/mL), Poly I:C (20 μg/mL), LPS (200 ng/mL), Flagellin (200 ng/mL), Gardiquimod (1 μg/mL), CL075 (1 μg/mL), and E. coli DNA (1 μg/mL). All TLR agonists were obtained from InvivoGen. […]

[3] = tested on: SQ20B and Cal-27 HNSCC cells; experiment: IL-1β secretion by ELISA after erlotinib; type: cell-based, human; conditions: erlotinib 5 μM, any time point
Procedure: as §2, with “TLR agonists were used at the following concentrations: Pam3CSK4 (200ng/mL), FSL-1 (100 ng/mL), Poly I:C (20 μg/mL), LPS (200 ng/mL), Flagellin (200 ng/mL), Gardiquimod (1 μg/mL), CL075 (1 μg/mL), and E. coli DNA (1 μg/mL). All TLR agonists were obtained from InvivoGen. The required volume of each drug was added directly to complete cell culture media on cells to achieve the indicated final concentrations.” left out
Levels of IL-6, IL-1α and IL-1β of treated cells were determined by ELISA. The culture media of the treated cells were harvested and each cytokine was detected according to the manufacturer's protocol using the Human Quantikine ELISA Kits (R&D Systems, Minneapolis, Minn.). […]
(§5) Levels of IL-6, IL-1α and IL-1β of treated cells were determined by ELISA. The culture media of the treated cells were harvested and each cytokine was detected according to the manufacturer's protocol using Human Quantikine ELISA Kits (R&D Systems, Minneapolis, Minn.).

HNSCC tumor cell lines = conditions: previous studies (ref. 10), cited from earlier work
Cal-27 HNSCC cells [4] = experiment: IL-1α release by ELISA in Cal-27 cells; type: cell-based, human; conditions: erlotinib 5 μM, indicated time points, ELISA
Procedure: as §2, §3
(§6) Erlotinib (ERL; Tarceva), anakinra (ANA; Kineret) and N-acetyl cysteine (NAC; Acetadote) were obtained from the inpatient pharmacy at the University of Iowa Hospitals and Clinics. Drugs were added to cells at final concentrations of 5 μM ERL, 10 ng/mL or 50 ng/mL ANA and 20 mM NAC. Human IgG and […] (DMSO) were used as controls and were obtained from Sigma Aldrich. Pegylated catalase (CAT; Sigma Aldrich) was used at a final concentration of 100 U/mL. Human IL-1α, IL-1β, and IL-18Ra neutralizing antibodies were obtained from R&D Systems and were used at a concentration of 0.5 μg/mL. Recombinant human IL-1α was obtained from Life Technologies and administered at a concentration of 1 ng/mL. Ac-Y-VAD-cho (CalBioChem) was suspended in DMSO and used at 5 μM. Z-VAD-fmk (Promega) was diluted in DMSO and used at 20 μM. TLR agonists were used at the following concentrations: Pam3CSK4 (200 ng/mL), FSL-1 (100 ng/mL), Poly I:C (20 μg/mL), LPS (200 ng/mL), Flagellin (200 ng/mL), Gardiquimod (1 μg/mL), CL075 (1 μg/mL), and E. coli DNA (1 μg/mL). All TLR agonists were obtained from InvivoGen. The required volume of each drug was added directly to complete cell culture media on cells to achieve the indicated final concentrations.
as §5

SQ20B HNSCC cells [5] = experiment: IL-6 secretion by ELISA in SQ20B cells; type: cell-based, human; conditions: erlotinib 5 μM, 48 h vs DMSO, ELISA
Source text: as §1, §2, §3
as §1, with “(20)” for “(16)”
as §4

SQ20B HNSCC cells [6] = experiment: IL-1α release by ELISA in SQ20B cells; type: cell-based, human; conditions: erlotinib 5 μM, indicated time points, ELISA
Procedure: as §2, §3, §6, §5

Cal-27 cells = experiment: TLR gene expression by RTPCR in Cal-27 cells; type: cell-based, human
Procedure: (§7) Total RNA was extracted from cells after indicated time points using RNeasy.Plus mini kit (Qiagen). Conversion of RNA into cDNA was accomplished with the iScript cDNA synthesis kit (Bio-Rad) and a thermocycler with the following conditions: 5 minutes at 25° C., 30 minutes at 42° C., and 5 minutes at 85° C. Subsequent RTPCR analysis was performed in a 96-well optical plate with each well containing 6 μL of cDNA, 7.5 μL of SyBr Green Universal SuperMix (Bio-Rad), and 1.5 μof oligonucleotide primers (sense and antisense; 4 μM) for a total reaction volume of 15 μL. Oligonucleotide primers for human genes were obtained from IDT (Iowa City, Iowa). RTPCR was performed on ABI PRISM Sequence Detection System (model 7000, Applied Biosystems) with the following protocol: 95° C. for 15 seconds (denaturing) and 60° C. for 60 seconds (annealing), repeated for 40 cycles. Threshold cycle (CT) values for analyzed genes (in duplicate) were normalized as compared to GAPDH (cell lines) or 18S (human samples) CT values. Relative abundance was calculated as 0.5̂(ΔCT), with OCT being the CT value of the analyzed gene minus the CT value of the reference gene (GAPDH or 18S).

SQ20B xenograft tumors = experiment: HNSCC xenograft tumor growth in nude mice; type: in vivo, athymic nu/nu mice
Source text: Male and female athymic-nu/nu mice (4-5 weeks old) were purchased from Harlan Laboratories (Indianapolis, Ind.). Mice were housed in a pathogen-free barrier room in the Animal Care Facility at the University of Iowa and handled using aseptic procedures. All procedures were approved by the IACUC committee of the University of Iowa and conformed to the guidelines established by the NIH. Mice were allowed at least 3 days to acclimate prior to beginning experimentation, and food and water were made freely available. Tumor cells were inoculated into nude mice by subcutaneous injection of 0.1 mL aliquots of saline containing 2×10^6 SQ20B cells into the right flank using 26-gauge needles.
Mice started drug treatment 1 week after tumor inoculation. For the MyD88 knockdown experiments, female mice were randomized into 2 treatment groups and orally administered either water or 12.5 mg/kg erlotinib (ERL) daily. For the IL-1α neutralization experiments, male and female mice were randomized into 4 treatment groups as follows. Control group: Mice were administered water orally daily and 1 mg/kg IgG i.p once per week. […] Mice were evaluated daily and tumor measurements taken three times per week using Vernier calipers. Tumor volumes were calculated using the formula: tumor volume=(length×width^2)/2 where the length was the longest dimension, and width was the dimension perpendicular to length. […]

SQ20B cells = experiment: TLR gene expression by RTPCR in SQ20B cells; type: cell-based, human
Procedure: as §7

[7] = ERL 5 μM 48 h, absolute levels very low

Row | SMILES | genes related to inflammation and innate immunity [1] | IL-6 production/secretion with erlotinib (Cal-27 HNSCC cells [2]) | secreted IL-1β after erlotinib treatment [3] | secreted IL-1β after erlotinib treatment ([3]; listed as ERL) | IL-6 expression/secretion in HNSCC cell lines treated with EGFRIs (HNSCC tumor cell lines) | IL-6 expression/secretion in HNSCC cell lines treated with EGFRIs (HNSCC tumor cell lines; listed as ERL) | IL-1α after erlotinib treatment over time (Cal-27 HNSCC cells [4]) | IL-1α after erlotinib treatment over time (Cal-27 HNSCC cells [4]; listed as ERL) | IL-6 production/secretion with erlotinib (SQ20B HNSCC cells [5]) | IL-1α after erlotinib treatment over time (SQ20B HNSCC cells [6]) | IL-1α after erlotinib treatment over time (SQ20B HNSCC cells [6]; listed as ERL) | TLR10 expression (Cal-27 cells; [7]) | TLR mRNA expression (Cal-27 cells; erlotinib) | anti-tumor activity in vivo with IL-1α blockade (SQ20B xenograft tumors; EGFRI combined with IL-1α blockade (neutralizing IL-1α antibody)) | tumor growth of MyD88-deficient xenografts treated with erlotinib (SQ20B xenograft tumors; shMyD88 #2 and #9 vs erlotinib-treated control xenografts, 12.5 mg/kg orally daily, three weeks) | TLR8 expression (SQ20B cells; [7]) | TLR mRNA expression (SQ20B cells; erlotinib)
1 | COc1cc2ncnc(Nc3cccc(Br)c3)c2cc1OC [PD153035] | upregulated | – | – | – | – | – | – | – | – | – | – | – | – | – | – | – | –
2 | C#Cc1cccc(Nc2ncnc3cc(OCCOC)c(OCCOC)cc23)c1 [erlotinib, Erlotinib] | – | increases IL-6 production | undetectable; also recorded: unable to detect | not IL-1β was detectable | significant upregulation | induces the secretion of IL-6 | steadily increased across all time points | increased across all time points | increases IL-6 production | steadily increased across all time points | increased across all time points | increased | did not affect | significantly increased | reduced tumor growth | increased | did not affect
